± gives the expanded uncertainty stated by the source.
Assay: xn = mol fraction of the nth substance listed
Settings: Liquid, Pycnometric method

CCCCBr [1-bromobutane] + O=C=O
mass density [kg/m3]
Settings | 316.1 K | 317.9 K
7540 kPa, x1 = 0.1495 | – | 964 ± 4
7770 kPa, x1 = 0.1495 | – | 967 ± 4
7950 kPa, x1 = 0.0989 | – | 850 ± 4
7990 kPa, x1 = 0.1495 | – | 970 ± 4
8090 kPa, x1 = 0.0989 | – | 853 ± 4
8230 kPa, x1 = 0.0683 | – | 777 ± 4
8230 kPa, x1 = 0.1495 | – | 974 ± 4
8330 kPa, x1 = 0.0461 | – | 703 ± 4
8340 kPa, x1 = 0.0683 | – | 780 ± 4
8370 kPa, x1 = 0.0461 | – | 705 ± 4
8370 kPa, x1 = 0.0989 | – | 859 ± 4
8450 kPa, x1 = 0.0245 | – | 491 ± 4
8450 kPa, x1 = 0.0461 | – | 712 ± 4
8450 kPa, x1 = 0.1495 | – | 977 ± 4
8460 kPa, x1 = 0.0245 | – | 493 ± 4
8480 kPa, x1 = 0.0245 | – | 499 ± 4
8490 kPa, x1 = 0.0683 | – | 786 ± 4
8500 kPa, x1 = 0.0245 | – | 506 ± 4
8510 kPa, x1 = 0.0245 | 593 ± 4 | –
8530 kPa, x1 = 0.0245 | – | 512 ± 4
8550 kPa, x1 = 0.0245 | – | 518 ± 4
8550 kPa, x1 = 0.0461 | – | 721 ± 4
8560 kPa, x1 = 0.0245 | 604 ± 4 | –
8570 kPa, x1 = 0.0245 | – | 525 ± 4
8600 kPa, x1 = 0.0245 | – | 532 ± 4
8620 kPa, x1 = 0.0245 | 615 ± 4 | 540 ± 4
8630 kPa, x1 = 0.0683 | – | 791 ± 4
8650 kPa, x1 = 0.0245 | – | 547 ± 4
8650 kPa, x1 = 0.0989 | – | 865 ± 4
8660 kPa, x1 = 0.1495 | – | 980 ± 4
8680 kPa, x1 = 0.0461 | – | 731 ± 4
8690 kPa, x1 = 0.0245 | 627 ± 4 | 555 ± 4
8720 kPa, x1 = 0.0245 | – | 563 ± 4
8770 kPa, x1 = 0.0245 | – | 571 ± 4
8780 kPa, x1 = 0.0245 | 639 ± 4 | –
8790 kPa, x1 = 0.0683 | – | 797 ± 4
8800 kPa, x1 = 0.0245 | – | 579 ± 4
8820 kPa, x1 = 0.0245 | – | 583 ± 4
8840 kPa, x1 = 0.0245 | – | 588 ± 4
8840 kPa, x1 = 0.0461 | – | 741 ± 4
8870 kPa, x1 = 0.0245 | – | 589 ± 4
8880 kPa, x1 = 0.0245 | 652 ± 4 | –
8890 kPa, x1 = 0.0245 | – | 597 ± 4
8920 kPa, x1 = 0.0245 | – | 601 ± 4
8940 kPa, x1 = 0.0683 | – | 802 ± 4
8950 kPa, x1 = 0.0989 | – | 871 ± 4
8960 kPa, x1 = 0.0245 | – | 608 ± 4
8960 kPa, x1 = 0.0461 | – | 748 ± 4
8990 kPa, x1 = 0.1495 | – | 984 ± 4
9000 kPa, x1 = 0.0245 | 665 ± 4 | –
9100 kPa, x1 = 0.0461 | – | 756 ± 4
9130 kPa, x1 = 0.0683 | – | 808 ± 4
9150 kPa, x1 = 0.0245 | 683 ± 4 | –
9250 kPa, x1 = 0.1495 | – | 987 ± 4
9270 kPa, x1 = 0.0461 | – | 764 ± 4
9300 kPa, x1 = 0.0989 | – | 877 ± 4
9330 kPa, x1 = 0.0683 | – | 814 ± 4
9340 kPa, x1 = 0.0245 | 694 ± 4 | –
9530 kPa, x1 = 0.0461 | – | 774 ± 4
9540 kPa, x1 = 0.0683 | – | 820 ± 4
9560 kPa, x1 = 0.0245 | 709 ± 4 | –
9580 kPa, x1 = 0.1495 | – | 990 ± 4
9670 kPa, x1 = 0.0989 | – | 884 ± 4
9770 kPa, x1 = 0.0683 | – | 826 ± 4
9810 kPa, x1 = 0.0461 | – | 785 ± 4
9850 kPa, x1 = 0.0245 | 725 ± 4 | –
9860 kPa, x1 = 0.1495 | – | 993 ± 4
10030 kPa, x1 = 0.0683 | – | 832 ± 4
10050 kPa, x1 = 0.0989 | – | 890 ± 4
10160 kPa, x1 = 0.0461 | – | 796 ± 4
10200 kPa, x1 = 0.0245 | 741 ± 4 | –
10240 kPa, x1 = 0.0245 | 743 ± 4 | –
10240 kPa, x1 = 0.1495 | – | 997 ± 4
10290 kPa, x1 = 0.0245 | 746 ± 4 | –
10310 kPa, x1 = 0.0683 | – | 838 ± 4
10350 kPa, x1 = 0.0245 | 750 ± 4 | –
10500 kPa, x1 = 0.0989 | – | 897 ± 4
10560 kPa, x1 = 0.1495 | – | 1000 ± 4
10590 kPa, x1 = 0.0461 | – | 809 ± 4
10630 kPa, x1 = 0.0683 | – | 845 ± 4
10930 kPa, x1 = 0.1495 | – | 1004 ± 4
10940 kPa, x1 = 0.0683 | – | 850 ± 4
10950 kPa, x1 = 0.0989 | – | 903 ± 4
11060 kPa, x1 = 0.0461 | – | 821 ± 4
11270 kPa, x1 = 0.1495 | – | 1007 ± 4
11310 kPa, x1 = 0.0683 | – | 858 ± 4
11470 kPa, x1 = 0.0989 | – | 910 ± 4
11600 kPa, x1 = 0.0461 | – | 833 ± 4
11690 kPa, x1 = 0.0683 | – | 863 ± 4
11700 kPa, x1 = 0.1495 | – | 1011 ± 4
11870 kPa, x1 = 0.0683 | – | 867 ± 4
11890 kPa, x1 = 0.0461 | – | 839 ± 4
